Source: patent publication US9963467B2, “Boronic acid derivatives and therapeutic uses thereof” (Rempex Pharmaceuticals, Inc., priority 2014, dated 2018)

Key:
KP1004 (KPC-2) = assay: Biapenem potentiation (MPC@1), KP1004; conditions: for BPM MPC1 KP1004 KPC-2: BLI with biapenem at 1 μg/mL
KP1086 (OXA-48) = assay: Biapenem potentiation (MPC@1), KP1086; conditions: for BPM MPC1 OXA-48 KP1086: BLI with biapenem at 1 μg/mL
[1] = Serum stability of prodrugs, human serum; type: in vitro ADME; conditions: for Measured Initial Conc. in Serum / Conc. at t = 2 h / Conc. at t = 4 h: human serum, theoretical initial conc. 40 ug/mL; for Measured Initial Conc. in Serum: 37 degrees; for Conc. at t = 2 h / Conc. at t = 4 h: prodrug
Protocol: (§1) Prodrug strategy is one of the ways to achieve or increase oral bioavailability for therapeutic drugs. […] After a prodrug molecule is absorbed into systemic circulation, it should be hydrolyzed in the blood in order to release the active form. Hydrolysis of several prodrugs by rat and human serum were evaluated.
(§2) For all stability experiments the test compounds were treated with rat or human serum in Eppendorf tubes. Typically, 992 μl of serum was prewarmed at 37 degrees for 2 minutes and then 8 μl of a compound (at 5 mg/ml, 125×) was added to it to get a final concentration of […] and immediately mixed. Alternatively, serum stability might be tested at 1 mg/ml. […] After vortexing for 30 seconds, the tube was centrifuged in a microcentrifuge for 10 minutes at 15K rpm. Next, 100 μl of the supernatant was combined with 600 μl of water and injected on LC-MS using 0.1% formic acid in water for mobile phase A and 0.1% formic acid in methanol for mobile phase B on an ACE 5 C18 2.1×100 mm column with a 10 μL injection. The flow rate and gradient were adjusted as needed to give the desired resolution and run time. The pH of the mobile phase was adjusted if needed to improve the chromatography.
(§3) The time course of both the disappearance of a prodrug and the appearance of the active form of that prodrug is presented in Table 6 and Table 7. The active metabolites for all of the listed prodrugs are corresponding parent drugs

[2] = Serum stability of prodrugs, rat serum; type: in vitro ADME; conditions: theoretical initial conc. 40 ug/mL; for Measured Initial Conc. in Serum: 37 degrees; for Conc. at t = 2 h / Conc. at t = 4 h: prodrug
Protocol: as §1, §2, §3

KPC-2 = KPC-2 (Klebsiella pneumoniae, UniProt Q9F663); assay: Ki, nitrocefin cleavage by purified enzyme, KPC-2; type: biochemical; conditions: nitrocefin reporter substrate; read-out: Ki (KPC-2, NCF)
Protocol: (§4) Purified enzymes were mixed with various concentrations of inhibitors in reaction buffer and incubated for 10 min at room temperature. Nitrocefin was added and substrate cleavage profiles were recorded at 490 nm every 10 sec for 10 min.

CTX-M-14 = CTX-M-14 (Escherichia coli, UniProt Q9L5C7); assay: Ki, nitrocefin cleavage by purified enzyme, CTX-M-14; type: biochemical; conditions: nitrocefin reporter substrate; read-out: Ki (CTX-M-14, NCF)
Protocol: as §4

KP1005 (CTX-M-14) = assay: Tigemonam potentiation (MPC@4), KP1005; type: cell-based; conditions: BLI with tigemonam at 4 μg/mL
Pa AmpC = Pa AmpC (Pseudomonas aeruginosa, UniProt P24735); assay: Ki, nitrocefin cleavage by purified enzyme, Pa AmpC; type: biochemical; conditions: nitrocefin reporter substrate; read-out: Ki (Pa AmpC, NCF)
Protocol: Ki values of inhibition of purified class A, C and D enzymes were determined spectrophotometrically using nitrocefin as reporter substrate. Purified enzymes were mixed with various concentrations of inhibitors in reaction buffer and incubated for 10 min at room temperature. Nitrocefin was added and substrate cleavage profiles were recorded at 490 nm every 10 sec for 10 min. These experiments confirmed that the described compounds are inhibitors with a broad-spectrum of activity towards various β-lactamases.

ec308 (SHV-5) = assay: Tigemonam potentiation (MPC@4), ec308; type: cell-based
ECL1002 [3] = assay: Aztreonam potentiation (MPC@4), ECL1002; type: cell-based; conditions: BLI with aztreonam at 4 μg/mL
OXA-48 = OXA-48 (Klebsiella pneumoniae, UniProt Q6XEC0); assay: Ki, nitrocefin cleavage by purified enzyme, OXA-48; type: biochemical; conditions: nitrocefin reporter substrate; read-out: Ki (OXA-48, NCF)
Protocol: as §4

SHV-12 = SHV-12 (Klebsiella pneumoniae, UniProt P0AD64, E235K/G234S/L31Q); assay: Ki, nitrocefin cleavage by purified enzyme, SHV-12; type: biochemical; conditions: nitrocefin reporter substrate; read-out: Ki (SHV-12, NCF)
Protocol: as §4

EC1010 (CMY-6) [4] = assay: Tigemonam potentiation (MPC@4), EC1010; type: cell-based; conditions: BLI with tigemonam at 4 μg/mL
KP1009 (CTX-M-15) = assay: Tigemonam potentiation (MPC@4), KP1009; type: cell-based; conditions: BLI with tigemonam at 4 μg/mL
ECL1002 [5] = assay: Tigemonam potentiation (MPC@4), ECL1002; type: cell-based; conditions: BLI with tigemonam at 4 μg/mL
P99 = P99 (Enterobacter cloacae, UniProt P05364); assay: Ki, nitrocefin cleavage by purified enzyme, P99; type: biochemical; conditions: nitrocefin reporter substrate; read-out: Ki (P99, NCF)
Protocol: as §4

EC1010 (CMY-6) [6] = assay: organism not typed; type: cell-based
ec302 (TEM-10) [7] = assay: Aztreonam potentiation (MPC@4), ec302; type: cell-based; conditions: BLI with aztreonam at 4 μg/mL
KP1010 (SHV-12) = assay: Tigemonam potentiation (MPC@4), KP1010; type: cell-based
ec302 (TEM-10) [8] = assay: Tigemonam potentiation (MPC@4), ec302; type: cell-based

Pa AmpC, sequence (P24735 27-397): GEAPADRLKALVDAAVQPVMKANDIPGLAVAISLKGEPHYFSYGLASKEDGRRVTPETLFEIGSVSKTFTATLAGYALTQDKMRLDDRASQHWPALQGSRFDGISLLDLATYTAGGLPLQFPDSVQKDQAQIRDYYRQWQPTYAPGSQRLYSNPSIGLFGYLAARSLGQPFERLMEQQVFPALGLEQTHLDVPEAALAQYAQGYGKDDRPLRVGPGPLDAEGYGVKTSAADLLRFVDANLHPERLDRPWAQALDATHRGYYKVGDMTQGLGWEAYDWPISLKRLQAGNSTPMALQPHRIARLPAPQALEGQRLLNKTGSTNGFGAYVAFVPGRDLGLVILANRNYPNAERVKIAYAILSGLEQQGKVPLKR
OXA-48, sequence (Q6XEC0 23-265, looked up, species assumed): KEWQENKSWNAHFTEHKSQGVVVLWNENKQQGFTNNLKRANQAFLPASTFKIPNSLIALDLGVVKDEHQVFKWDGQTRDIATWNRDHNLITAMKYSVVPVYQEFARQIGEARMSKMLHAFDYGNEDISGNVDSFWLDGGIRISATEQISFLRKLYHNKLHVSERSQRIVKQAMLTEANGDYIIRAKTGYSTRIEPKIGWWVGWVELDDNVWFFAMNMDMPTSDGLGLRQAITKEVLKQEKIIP
P99, sequence (P05364 21-381): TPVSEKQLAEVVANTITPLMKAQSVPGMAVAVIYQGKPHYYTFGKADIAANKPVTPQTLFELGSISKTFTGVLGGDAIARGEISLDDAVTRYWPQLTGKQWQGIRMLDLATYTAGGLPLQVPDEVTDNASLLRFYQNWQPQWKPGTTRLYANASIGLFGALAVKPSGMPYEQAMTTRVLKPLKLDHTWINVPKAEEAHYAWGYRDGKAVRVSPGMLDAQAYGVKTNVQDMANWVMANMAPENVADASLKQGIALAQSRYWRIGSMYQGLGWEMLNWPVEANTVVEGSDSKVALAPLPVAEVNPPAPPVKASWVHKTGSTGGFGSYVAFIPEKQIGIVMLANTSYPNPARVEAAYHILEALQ
SHV-12, sequence (P0AD64 22-286 L31Q/G234S/E235K): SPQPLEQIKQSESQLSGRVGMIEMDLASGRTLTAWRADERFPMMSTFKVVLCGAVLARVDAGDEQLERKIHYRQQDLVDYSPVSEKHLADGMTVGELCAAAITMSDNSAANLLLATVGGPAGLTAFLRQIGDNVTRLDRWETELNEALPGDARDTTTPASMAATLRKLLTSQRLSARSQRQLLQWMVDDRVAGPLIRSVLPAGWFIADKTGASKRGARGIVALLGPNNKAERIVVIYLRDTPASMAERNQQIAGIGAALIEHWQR
CTX-M-14, sequence (Q9L5C7 29-291): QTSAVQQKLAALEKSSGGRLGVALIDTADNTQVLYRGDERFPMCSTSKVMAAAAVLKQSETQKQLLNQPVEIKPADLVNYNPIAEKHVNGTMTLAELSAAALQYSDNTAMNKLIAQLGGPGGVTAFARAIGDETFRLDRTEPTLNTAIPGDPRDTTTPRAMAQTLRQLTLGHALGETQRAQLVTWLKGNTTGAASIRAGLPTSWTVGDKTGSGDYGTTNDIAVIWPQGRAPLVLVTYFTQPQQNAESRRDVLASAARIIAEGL
KPC-2, sequence (Q9F663 25-293, looked up, species assumed): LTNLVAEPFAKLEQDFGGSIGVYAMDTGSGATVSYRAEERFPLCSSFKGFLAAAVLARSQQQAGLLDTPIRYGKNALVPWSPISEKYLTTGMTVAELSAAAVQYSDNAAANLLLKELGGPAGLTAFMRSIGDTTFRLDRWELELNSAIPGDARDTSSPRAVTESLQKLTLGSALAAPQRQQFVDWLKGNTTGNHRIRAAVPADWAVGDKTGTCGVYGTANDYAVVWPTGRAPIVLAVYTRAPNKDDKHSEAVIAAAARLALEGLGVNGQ

Compound | Measured Initial Conc. in Serum [1] | Conc. at t = 2 h [1] | Conc. at t = 4 h [1] | Measured Initial Conc. in Serum [2] | Conc. at t = 2 h [2] | Conc. at t = 4 h [2] | Ki (KPC-2) | Ki (CTX-M-14) | BPM MPC1 KP1004 KPC-2 (KP1004 (KPC-2)) | TIG MPC4 CTX-M-14 KP1005 (KP1005 (CTX-M-14)) | Ki (Pa AmpC) | TIG MPC4 SHV-5 ec308 (ec308 (SHV-5)) | BPM MPC1 OXA-48 KP1086 (KP1086 (OXA-48)) | AZT MPC4 ECL1002 (ECL1002 [3]) | Ki (OXA-48) | Ki (SHV-12) | TIG MPC4 CMY-6 EC1010 (EC1010 (CMY-6) [4]) | TIG MPC4 CTX-M-15 KP1009 (KP1009 (CTX-M-15)) | TIG MPC4 ECL1002 (ECL1002 [5]) | Ki (P99) | other results
C[C@@H](O)[C@H]1C(=O)N2C(C(=O)[O-])=C(SC3Cn4cnc[n+]4C3)[C@H](C)[C@H]12 (stereo partly drawn) [Biapenem, reference compound] | – | – | – | – | – | – | – | – | – | – | – | – | – | – | – | – | – | – | – | – | MIC (KP1004 (KPC-2); read-out: Biapenem MIC KP1004): > 10 µg/mL; MIC (KP1086 (OXA-48); read-out: Biapenem MIC KP1086): > 10 µg/mL
CCCC(=O)OCOC(=O)c1c(F)ccc2c1OB(O)[C@@H](NC(=O)CSC)C2 [Compound 13, (R)-butyryloxymethyl 7-fluoro-2-hydroxy-3-(2-(methylthio)acetamido)-3,4-dihydro-2H-benzo[e][1,2]oxaborinine-8-carboxylate] | 30.6 µg/mL | 1560 ng/mL | BQL | 28.1 µg/mL | 9.81 (t = 2 h) ug/mL | BQL | – | – | – | – | – | – | – | – | – | – | – | – | – | – | conversion of prodrug to active metabolite ([1]; serum (Tables 6 and 7), 4 hour experiment): completely converted to active metabolite
CSCC(=O)N[C@H]1Cc2ccc(F)c(C(=O)OCOC(C)=O)c2OB1O [Compound 14, (R)-acetoxymethyl 7-fluoro-2-hydroxy-3-(2-(methylthio)acetamido)-3,4-dihydro-2H-benzo[e][1,2]oxaborinine-8-carboxylate] | 36.8 µg/mL | 5000 ng/mL | 1130 ng/mL | 39.6 µg/mL | BQL | BQL | – | – | – | – | – | – | – | – | – | – | – | – | – | – | –
CSCC(=O)N[C@H]1Cc2ccc(F)c(C(=O)OCOC(=O)OC(C)C)c2OB1O [Compound 15, (R)-(isopropoxycarbonyloxy)methyl 7-fluoro-2-hydroxy-3-(2-(methylthio)acetamido)-3,4-dihydro-2H-benzo[e][1,2]oxaborinine-8-carboxylate] | 33.2 µg/mL | 12800 ng/mL | 5320 ng/mL | 30.6 µg/mL | BQL | BQL | – | – | – | – | – | – | – | – | – | – | – | – | – | – | –
COc1ccc2c(c1C(=O)O)OB(O)[C@@H](NC(=O)CSC(F)F)C2 [Compound 25, (R)-3-(2-(difluoromethylthio)acetamido)-2-hydroxy-7-methoxy-3,4-dihydro-2H-benzo[e][1,2]oxaborinine-8-carboxylic acid] | – | – | – | – | – | – | 1 to 10 nM | < 1 nM | X (MIC of less than 1 μg/mL) | X (MIC of less than 1 μg/mL) | > 10 nM | X (key: X: MIC of less than 1 μg/mL; Y: MIC of 1 μg/mL to 10 μg/mL; Z: MIC of greater than 10 μg/mL) | Z (MIC of greater than 10 μg/mL) | Y (MIC of 1 μg/mL to 10 μg/mL) | < 1 nM | < 1 nM | X (MIC of less than 1 μg/mL) | X (MIC of less than 1 μg/mL) | X (MIC of less than 1 μg/mL) | 1 to 10 nM | AZT MPC4 CMY-6 EC1010 (EC1010 (CMY-6) [6]): Y (key: X: MIC of less than 1 ng/mL; Y: MIC of 1 μg/mL to 10 μg/mL; Z: MIC of greater than 10 μg/mL); AZT MPC4 TEM-10 ec302 (ec302 (TEM-10) [7]): X (MIC of less than 1 ng/mL); TIG MPC4 SHV-12 KP1010 (KP1010 (SHV-12)): X (key: X: MIC of less than 1 μg/mL; Y: MIC of 1 μg/mL to 10 μg/mL; Z: MIC of greater than 10 μg/mL); TIG MPC4 TEM-10 ec302 (ec302 (TEM-10) [8]): Y (key: X: MIC of less than 1 ng/mL; Y: MIC of 1 μg/mL to 10 μg/mL; Z: MIC of greater than 10 μg/mL)
COc1ccc2c(c1C(=O)O)OB(O)[C@@H](NC(=O)CSC1CNC1)C2 [Compound 26, (R)-3-(2-(azetidin-3-ylthio)acetamido)-2-hydroxy-7-methoxy-3,4-dihydro-2H-benzo[e][1,2]oxaborinine-8-carboxylic acid] | – | – | – | – | – | – | > 10 nM | < 1 nM | X (MIC of less than 1 μg/mL) | X (MIC of less than 1 μg/mL) | > 10 nM | X (key: X: MIC of less than 1 μg/mL; Y: MIC of 1 μg/mL to 10 μg/mL; Z: MIC of greater than 10 μg/mL) | Y (MIC of 1 μg/mL to 10 μg/mL) | Y (MIC of 1 μg/mL to 10 μg/mL) | 1 to 10 nM | < 1 nM | X (MIC of less than 1 μg/mL) | X (MIC of less than 1 μg/mL) | X (MIC of less than 1 μg/mL) | > 10 nM | AZT MPC4 CMY-6 EC1010 (EC1010 (CMY-6) [6]): Y (key: X: MIC of less than 1 ng/mL; Y: MIC of 1 μg/mL to 10 μg/mL; Z: MIC of greater than 10 μg/mL); AZT MPC4 TEM-10 ec302 (ec302 (TEM-10) [7]): Y (MIC of 1 μg/mL to 10 μg/mL); TIG MPC4 SHV-12 KP1010 (KP1010 (SHV-12)): X (key: X: MIC of less than 1 μg/mL; Y: MIC of 1 μg/mL to 10 μg/mL; Z: MIC of greater than 10 μg/mL); TIG MPC4 TEM-10 ec302 (ec302 (TEM-10) [8]): Y (key: X: MIC of less than 1 ng/mL; Y: MIC of 1 μg/mL to 10 μg/mL; Z: MIC of greater than 10 μg/mL)
COc1ccc2c(c1C(=O)O)OB(O)[C@@H](NC(=O)CC(N)=O)C2 [Compound 27, (R)-3-(3-amino-3-oxopropanamido)-2-hydroxy-7-methoxy-3,4-dihydro-2H-benzo[e][1,2]oxaborinine-8-carboxylic acid] | – | – | – | – | – | – | > 10 nM | < 1 nM | X (MIC of less than 1 μg/mL) | Y (MIC of 1 μg/mL to 10 μg/mL) | > 10 nM | X (key: X: MIC of less than 1 μg/mL; Y: MIC of 1 μg/mL to 10 μg/mL; Z: MIC of greater than 10 μg/mL) | Y (MIC of 1 μg/mL to 10 μg/mL) | Y (MIC of 1 μg/mL to 10 μg/mL) | < 1 nM | < 1 nM | X (MIC of less than 1 μg/mL) | X (MIC of less than 1 μg/mL) | X (MIC of less than 1 μg/mL) | > 10 nM | AZT MPC4 CMY-6 EC1010 (EC1010 (CMY-6) [6]): Y (key: X: MIC of less than 1 ng/mL; Y: MIC of 1 μg/mL to 10 μg/mL; Z: MIC of greater than 10 μg/mL); AZT MPC4 TEM-10 ec302 (ec302 (TEM-10) [7]): Y (MIC of 1 μg/mL to 10 μg/mL); TIG MPC4 SHV-12 KP1010 (KP1010 (SHV-12)): X (key: X: MIC of less than 1 μg/mL; Y: MIC of 1 μg/mL to 10 μg/mL; Z: MIC of greater than 10 μg/mL); TIG MPC4 TEM-10 ec302 (ec302 (TEM-10) [8]): Z (key: X: MIC of less than 1 ng/mL; Y: MIC of 1 μg/mL to 10 μg/mL; Z: MIC of greater than 10 μg/mL)
